In patent publication US8003773B2, “Polynucleotides encoding MHC class I-restricted hTERT epitopes, analogues thereof or polyepitopes” (Institut Pasteur, priority 2005, dated 2011):

Legend:
[1] = tested on: peptide loaded RMA-B7 target cells; test: Peptide immunization of HLA-*B0702 transgenic mice for CTL induction, 51Cr release assay; type: in vivo; details: for CTL response after peptide immunization: HLA-*B0702 transgenic mice; for R/T: responder (specific lysis ≧ 10%) versus tested mice / mice tested generating specific CTL: peptide immunization; for R/T: responder (specific lysis ≧ 10%) versus tested mice: six mice per peptide
Description: Female HLA-*B0702 transgenic mice at 8-10 weeks of age were injected subcutaneously (s.c.) at the base of the tail with 50 μg of individual HLA-B0702 restricted hTERT peptides supplemented with 140 μg of helper peptide co-emulsified in incomplete Freund's adjuvant (Difco, Detroit, Mich.). Ten days later, spleen cells of individual mouse were re-activated in vitro with relevant peptide in six wells plate. Effector CTL cells were tested in a standard 4-5 h ^51Cr-release assay, using relevant or negative control peptide-pulsed, HLA-*B0702 transfected RMA cells (RMA-B7). Mice were considered as responders, when specific lysis ≧10% was observed.
(§1) Cytotoxicity assays were performed by using standard 4-5 h ^51Cr release assay as previously described (Firat et al. J Gene Med 2002; 4:38-45). Specific lysis in % was calculated by subtracting non-specific lysis observed with the control peptide. Mice were considered as responsers when specific lysis ≧10% was observed.

[2] = tested on: human tumour cell lines of different origins; test: Capacity of hTERT-specific CTLs from donors to lyse human tumour cell lines of different origins (summary); type: cell-based; details: CTL lines generated in vitro from healthy donors
Description: as §1
(§2) Human CTL from donors were obtained after in vitro re-activated PBMC for 4 weeks with hTERT peptide HLA-B0702 restricted as described previously (Hernandez et al. Proc Natl Acad Sci U.S.A. 2002; 99:12275-80). Briefly, Ficoll-purified human PBMCS were thawed and incubated (4×10^6/well) in 24-well plates in RPMI 1640, 1 mM sodium pyruvate, 100 IU/ml penicillin, 100 μg/ml streptomycin, 10 mM HEPES, 5×10^-5 M 2-mercaptoethanol supplemented with heat inactivated 10% human serum (Institut Jacques Boy, Reims, France). They were stimulated with each hTERT peptide (10 μg/ml) and recombinant human IL-7 (20 ng/ml; R&D Systems) was added.
On day 7, lymphocytes were re-activated with peptide-pulsed γ-irradiated autologous PBMCs (50 Gy). The next day, 20 IU/ml human IL-2 (Roche, Mannheim, Germany) was added to the culture. CTL lines were re-activated weekly during four cycles. For some donors, CD8^+ T cells were purified after three round cycle, using CD8 microbeads (Miltenyi Biotec, Bergisch Gladbach, Germany.) according to manufacturer's recommendations and activated once before functional test. Cytolytic assays were performed 6 days after the last re-activation against various ^51Cr-labeled targets: T2-B7 pulsed with tested hTERT peptides or irrelevant peptide, or tumor cell lines.

[3] = tested on: hTERT peptide-pulsed target cells; test: Lv-hTERT immunization of HLA-B7 Tg mice, CTL response in chromium release assay; type: in vivo; details: Flap+ Lv-hTRT immunization, by restimulating peptide
Description: (§3) Immunization with TRIPLv-hTERT was performed as a single subcutaneously (at the base of the tail) injection of 1500 ng of TripLv-hTERT suspension or control vector.
(§4) 12 days later, hTERT peptide-specific T among splenocytes were detected by an ELISPOT assay (see below). Cytotoxicity assays were performed on the same immune splenocyte populations after in vitro stimulation with peptide-pulsed as described above.
Mice were considered as responsers when specific lysis ≧10% was observed.

T2-B7 cells = test: Induction of primary CTL responses from healthy donors' PBMC by hTERT peptides; type: cell-based, human; details: HLA-B0702 healthy donors, in vitro immunization; FIG. 3
Excerpt: T-lymphocyte cells from HLA-*B0702^+ healthy donors were activated with each of the six hTERT peptide-pulsed autologous PBMC as detailed in materials and Method. After four rounds of weekly stimulation, effector cells, pulsed with relevant (▪) or control (□) peptides, were essayed for lytic activity against ^51Cr-labeled T2-B7 cells. Percentage of lysis at a 20/1 effector-target ratio is shown. Results from 8 out of 10 donors are presented (d1 to d8).
as §2
On day 7, lymphocytes were re-activated with peptide-pulsed γ-irradiated autologous PBMCs (50 Gy). The next day, 20 IU/ml human IL-2 (Roche, Mannheim, Germany) was added to the culture. CTL lines were re-activated weekly during four cycles. […]

[4] = tested on: RMA-B7 targets loaded with relevant peptides; test: DNA immunization (hTERT) in HLA-*B0702 transgenic mice, peptide-specific CTL; type: in vivo; details: immunised with cDNA encoding hTERT; FIG. 2
Description: HLA-B7 Tg mice and one naïve mice (N) were immunized with 100 μg DNA encoding Htert. On day 14, spleen cells from each mouse were separately in vitro stimulated with different hTERT-derived peptides. Effector cells were essayed 6 days later against RMA-B7 targets loaded with relevant (▪) or control (□) peptides as described in the material and methods. Percentage of lysis at a 60/1 ratio are shown (results from two independent experiments).
The LvCMV-hTERT plasmid vector encoding the hTERT gene under the control of CMV promotor was purified on plasmid Giga kit columns under endotoxin-free conditions (Qiagen). Anesthetized HLA-*B0702 Transgenic mice were injected with said plasmid (50 μg each side) into regenerating tibialis anterior muscles. 14 days after, spleen cells of individual mouse were re-activated in vitro with peptide-pulsed (10 μg/ml), syngenic γ-irradiated (50 Gy) LPS-lymphoblast in complete medium, supplemented with 10% supernatant from Con A-activated rat spleens cells. Cytotoxicity assays were performed 6 days as described.
as §1

[5] = tested on: hTERT peptide-pulsed target cells; test: Lv-hTERT immunization of HHD mice (HLA-A2.1), CTL response in chromium release assay; type: in vivo
Description: as §3, §4, §1

Substance	CTL response after peptide immunization [1]	R/T: responder (specific lysis ≧ 10%) versus tested mice [1]	tumor cell recognition by CTL lines specific for the peptide [2]	R/T [3]	mice tested generating specific CTL [1]	donors with peptide-specific CTL responses (T2-B7 cells)	mice with hTERT peptide-specific CTLs induced [4]	CTL responses specific for HLA-A2.1 restricted epitopes ([5]; HHD mice immunized with Lv-hTERT)	R/T ([5]; HHD mice, Flap+ Lv-hTRT immunization, by restimulating peptide)
APRCRAVRSL [p4]	strong CTL response in all mice tested	6/6	do not lyse all the type of tested tumors	6/8	–	–	–	–	–
APSFRQVSCL [p68]	strong CTL response in all mice tested	6/6	only recognize the T1-B7 targets	4/8	–	–	–	–	–
MPRAPRCRA [p1]	–	4/6	only recognize the T1-B7 targets	4/8	–	–	–	–	–
RPAEEATSL [p277]	moderate specific CTL	3/6	recognize renal cancer (293 UT) but neither melanoma nor lymphoid tumor cells	5/8	50 % of mice tested	–	–	–	–
RPSFLLSSL [p342]	moderate specific CTL	3/6	recognize only melanoma cells (LB 34 and KU 268 target)	4/8	50 % of mice tested	20 % of donors	about 15 % of mice	–	–
RPSLTGARRL [p351]	–	4/6	recognize the majority of tumor cell lines tested	5/8	–	–	–	–	–
p540: HLA-A2.1-restricted hTERT-derived peptide, epitope previously classified as dominant (ILAKFLHWL; UniProt O14746 540-548, looked up, fragment)	–	–	–	–	–	–	–	potent CTL responses	2/6
